Data as given in patent US20020165236A1, “Compounds for the treatment of protozoal diseases” (priority 2001, published 2002).

What follows are compounds tested on multiresistant Dd2 strain of Plasmodium falciparum (assay: antiplasmodial action, [8-3H]hypoxanthine incorporation, Dd2 strain). Conditions: read-out: in vitro antiplasmodial activity (IC50 value class).
Type: cell-based
Method: For the determination of the antiplasmodial action of the compounds, the multiresistant Dd2 strain of Plasmodium falciparum was used. The incorporation of [8-^3H]hypoxanthine into the parasitic nucleic acids was measured. The plasmodia were incubated at 0.3% parasitaemia and an erythrocyte haematocrit of 2.5% in the presence of different concentrations of the compounds in a final volume of 200-μl. The medium employed was RPMI 1640 which contained 10% of heat-treated human serum and 3 mg/l of gentamycin. in the incubations, the concentrations of the compounds varied from 0.3 to 100 μM. After 48 h, each batch was treated with 50 µl of […] (1 mCi/ml) and incubated for a further 18 h. The cells were filtered off, washed and suspended in 20 μl of scintillation fluid. The radioactive hypoxanthine absorbed by the parasites was then quantified using a scintillation counter.
The results were presented graphically and the IC50 value was determined using a fitting function. The value IC50, the ‘inhibition constant’, indicates the value in μMol/1 at which 50% inhibition occurs.

Structure (SMILES) | IC50 [nM]
CSc1ccc(NC(=O)Nc2cccc(C(=N)NN)c2)cc1 [Compound 1] | 1000 to 10000
N=C(N)c1ccc(NC(=O)Nc2cccc(C(F)(F)F)c2)cc1 [Compound 2] | 1000 to 10000
N=C(N)c1cccc(NC(=O)Nc2ccccc2Br)c1 [Compound 3] | 1000 to 10000
N#Cc1ccccc1NC(=O)Nc1cccc(C(=N)N)c1 [Compound 4] | 1000 to 10000
CS(=O)(=O)c1ccc2nc(NC(=O)Nc3cccc(C(=N)N)c3)sc2c1 [Compound 6] | 10000 to 100000
CSc1ccc(NC(=O)Nc2cccc(C(=N)N)c2)cc1 [Compound 7] | 1000 to 10000
N=C(N)c1cccc(NC(=O)Nc2ccc(C(F)(F)F)cc2)c1 [Compound 8] | 1000 to 10000
N=C(N)c1cccc(NC(=O)Nc2ccc(C(F)(F)F)cc2Br)c1 [Compound 11] | 1000 to 10000
COC(=O)c1cc(NC(=O)Nc2cccc(C(=N)N)c2)cc(C(F)(F)F)c1 [Compound 12] | 1000 to 10000
N=C(N)c1cccc(NC(=O)Nc2ccc(Br)cc2Br)c1 [Compound 14] | 1000 to 10000
COC(=O)c1cc(NC(=O)Nc2ccc(C(=N)N)cc2)cc(C(F)(F)F)c1 [Compound 16] | 1000 to 10000
CN1C(=O)c2ccc(NC(=O)Nc3cccc(C(=N)N)c3)cc2C1=O [Compound 17] | 10000 to 100000
N=C(N)c1cccc(NC(=O)Nc2ccc(S(=O)(=O)N3CCc4ccccc4C3)cc2)c1 [Compound 20] | 1000 to 10000
CCCCNS(=O)(=O)c1ccc(NC(=O)Nc2cccc(C(=N)N)c2)cc1 [Compound 21] | 1000 to 10000
N=C(N)c1cccc(NC(=O)Nc2ccc(S(=O)(=O)NC3C4CC5CC(C4)CC3C5)cc2)c1 (stereo not drawn) [Compound 22] | 10000 to 100000
N=C(N)c1cccc(NC(=O)Nc2ccc(S(=O)(=O)Nc3ccccc3)cc2)c1 [Compound 26] | 1000 to 10000
N=C(N)c1cccc(NC(=O)Nc2ccc(S(=O)(=O)Nc3ccc(-c4ccc(N)cc4[N+](=O)[O-])cc3)cc2)c1 [Compound 27] | 1000 to 10000
N=C(N)c1cccc(NC(=O)Nc2ccc(S(N)(=O)=O)cc2[N+](=O)[O-])c1 [Compound 28] | 1000 to 10000
N=C(N)c1cccc(NC(=O)Nc2ccc(S(=O)(=O)Nc3ccc4cccnc4c3)cc2)c1 [Compound 29] | 1000 to 10000
N=C(N)c1cccc(NC(=O)Nc2ccc(S(N)(=O)=O)cc2)c1 [Compound 30] | 1000 to 10000
N=C(N)c1cccc(NC(=O)Nc2ccc(NS(=O)(=O)c3ccccc3)c(O)c2)c1 [Compound 31] | 1000 to 10000

Structure (SMILES) | IC50 [nM]
Cc1ccc(S(=O)(=O)Nc2cccc(NC(=O)Nc3cccc(C(=N)N)c3)c2)cc1 [Compound 32] | 10000 to 100000
N=C(N)c1cccc(NC(=O)Nc2ccc(S(=O)(=O)NCc3cc(F)c(F)cc3F)cc2)c1 [Compound 41] | 1000 to 10000
N=C(N)c1cccc(NC(=O)Nc2ccc(S(=O)(=O)NCc3ccc(F)cc3F)cc2)c1 [Compound 43] | 1000 to 10000
N=C(N)c1cccc(NC(=O)Nc2ccc(S(=O)(=O)NCc3ccc(F)c(F)c3)cc2)c1 [Compound 44] | 1000 to 10000
N=C(N)c1cccc(NC(=O)Nc2ccc(S(=O)(=O)NCc3cc(F)cc(C(F)(F)F)c3)cc2)c1 [Compound 46] | 1000 to 10000
CC(NS(=O)(=O)c1ccc(NC(=O)Nc2cccc(C(=N)N)c2)cc1)c1ccc(F)cc1 (stereo not drawn) [Compound 48] | 1000 to 10000
N=C(N)c1cccc(NC(=O)Nc2ccc(S(=O)(=O)NCc3cccc(OC(F)(F)F)c3)cc2)c1 [Compound 49] | 1000 to 10000
N=C(N)c1cccc(NC(=O)Nc2cccc(S(=O)(=O)NCc3cccc(F)c3)c2)c1 [Compound 57] | 1000 to 10000
N=C(N)c1cccc(NC(=O)Nc2cccc(S(=O)(=O)NCc3ccc(S(N)(=O)=O)cc3)c2)c1 [Compound 58] | 1000 to 10000
N=C(N)c1cccc(NC(=O)Nc2ccc(S(=O)(=O)NNC(=O)c3ccc(-c4ccccc4)cc3)cc2)c1 [Compound 60] | 1000 to 10000
N=C(N)c1cccc(NC(=O)Nc2ccc(S(=O)(=O)c3ccc(NCCO)cc3)cc2)c1 [Compound 65] | 1000 to 10000
CC(=O)Nc1cccc(NC(=O)Nc2cccc(C(=N)N)c2)c1 [Compound 66] | 1000 to 10000
COc1ccccc1C(=O)Nc1cccc(NC(=O)Nc2cccc(C(=N)N)c2)c1 [Compound 68] | 1000 to 10000
N=C(N)c1cccc(NC(=O)Nc2cccc(NC(=O)c3ccc(-c4ccccc4)cc3)c2)c1 [Compound 70] | 1000 to 10000
Cc1cc(-c2onc(C)c2C(=O)Nc2ccc(NC(=O)Nc3cccc(C(=N)N)c3)cc2)no1 [Compound 71] | 1000 to 10000
N=C(N)c1cccc(NC(=O)Nc2cccc(C(=O)NC(c3ccccc3)c3ccccc3)c2)c1 [Compound 72] | 1000 to 10000
N=C(N)c1cccc(NC(=O)Nc2ccc(C(=O)NCc3ccc(S(N)(=O)=O)cc3)cc2)c1 [Compound 73, 4-[3-(3-carbamimidoylphenyl)-ureido]-N-(4-sulfamoylbenzyl)-benzamide] | 1000 to 10000
N=C(N)c1cccc(NC(=S)Nc2ccc(S(=O)(=O)c3ccc(NCCO)cc3)cc2)c1 [Compound 77] | 1000 to 10000
CN(C)CCNC(=N)c1cccc(NC(=O)Nc2ccc(S(=O)(=O)c3ccc([N+](=O)[O-])cc3)cc2)c1 [Compound 81] | 1000 to 10000
N=C(NCCN1CCCC1)c1cccc(NC(=O)Nc2ccc(S(=O)(=O)c3ccc([N+](=O)[O-])cc3)cc2)c1 [Compound 83] | 1000 to 10000

Further lines, results first:

IC50 [nM] | Structure (SMILES)
< 1000 | N=C(N)c1cccc(NC(=O)Nc2ccc(Cl)c(C(F)(F)F)c2)c1 [Compound 9]
< 1000 | N=C(N)c1cccc(NC(=O)Nc2ccc(S(=O)(=O)NC(c3ccccc3)c3ccccc3)cc2)c1 [Compound 23, 3-{3-[4-(benzhydrylsulfamoyl)-phenyl]-ureido}-benzamidine]
< 1000 | N=C(N)c1cccc(NC(=O)Nc2ccc(S(=O)(=O)NCc3ccccc3)cc2)c1 [Compound 33, 3-[3-(4-Benzylsulfamoyl-phenyl)-ureido]-benzamidine]
< 1000 | N=C(N)c1cccc(NC(=O)Nc2ccc(S(=O)(=O)NCc3ccc(S(N)(=O)=O)cc3)cc2)c1 [Compound 35, 3-{3-[4-(4-sulfamoyl-benzylsulfamoyl)-phenyl]-ureido}-benzamidine]
< 1000 | N=C(N)c1cccc(NC(=O)Nc2ccc(S(=O)(=O)NCc3cccc(F)c3)cc2)c1 [Compound 36]
< 1000 | N=C(N)c1cccc(NC(=O)Nc2ccc(S(=O)(=O)NCc3cccc(C(F)(F)F)c3)cc2)c1 [Compound 37, 3-{3-[4-(3-trifluoromethyl-benzylsulfamoyl)-phenyl]-ureido}-benzamidine]
< 1000 | N=C(N)c1cccc(NC(=O)Nc2ccc(S(=O)(=O)NCc3ccc(C(F)(F)F)cc3)cc2)c1 [Compound 38]
< 1000 | N=C(N)c1cccc(NC(=O)Nc2ccc(S(=O)(=O)NCc3ccc(F)cc3)cc2)c1 [Compound 39]
< 1000 | N=C(N)c1cccc(NC(=O)Nc2ccc(S(=O)(=O)NCc3ccccc3F)cc2)c1 [Compound 40]
< 1000 | N=C(N)c1cccc(NC(=O)Nc2ccc(S(=O)(=O)NCc3cc(F)ccc3F)cc2)c1 [Compound 42]
< 1000 | N=C(N)c1cccc(NC(=O)Nc2ccc(S(=O)(=O)NCc3c(F)cccc3F)cc2)c1 [Compound 45]
< 1000 | N=C(N)c1cccc(NC(=O)Nc2ccc(S(=O)(=O)NCc3c(F)ccc(F)c3F)cc2)c1 [Compound 47, 3-{3-[4-(2,3,6-trifluorobenzylsulfamoyl)-phenyl]-ureido}-benzamidine]
< 1000 | N=C(N)c1ccc(NC(=O)Nc2ccc(S(=O)(=O)NCc3ccc(S(N)(=O)=O)cc3)cc2)cc1 [Compound 51, 4-{3-[4-(4-sulfamoylbenzylsulfamoyl)-phenyl]-ureido}-benzamidine]
< 1000 | N=C(N)c1ccc(NC(=O)Nc2ccc(S(=O)(=O)NCc3cccc(F)c3)cc2)cc1 [Compound 52]
< 1000 | N=C(N)c1ccc(NC(=O)Nc2ccc(S(=O)(=O)NCc3ccc(F)cc3)cc2)cc1 [Compound 53]
< 1000 | N=C(N)c1ccc(NC(=O)Nc2ccc(S(=O)(=O)NCc3c(F)cccc3F)cc2)cc1 [Compound 54]
< 1000 | N=C(N)c1ccc(NC(=O)Nc2ccc(S(=O)(=O)NCc3ccc(F)cc3F)cc2)cc1 [Compound 55]
< 1000 | N=C(N)c1ccc(NC(=O)Nc2ccc(S(=O)(=O)NCc3c(F)ccc(F)c3F)cc2)cc1 [Compound 56]
< 1000 | N=C(N)c1cccc(NC(=O)Nc2ccc(S(=O)(=O)NCc3ccc([N+](=O)[O-])cc3)cc2)c1 [Compound 59]
< 1000 | N=C(N)c1cccc(NC(=O)Nc2ccc(S(=O)(=O)c3ccc([N+](=O)[O-])cc3)cc2)c1 [Compound 63, 3-{3-[4-(4-nitrobenzenesulfonyl)-phenyl]-ureido}-benzamidine]
< 1000 | COc1ccc(C(=O)Nc2cccc(NC(=O)Nc3cccc(C(=N)N)c3)c2)cc1 [Compound 69]
< 1000 | N=C(N)c1cccc(NC(=S)Nc2ccc(S(=O)(=O)NCc3ccc(C(F)(F)F)cc3)cc2)c1 [Compound 74]
< 1000 | N=C(N)c1cccc(NC(=S)Nc2ccc(S(=O)(=O)NCc3cccc(F)c3)cc2)c1 [Compound 75]
< 1000 | N=C(N)c1cccc(NC(=S)Nc2ccc3c(c2)S(=O)(=O)C=C3)c1 [Compound 76]
< 1000 | N=C(N)c1cccc(NC(=S)Nc2ccc(S(=O)(=O)NCc3cccc(C(F)(F)F)c3)cc2)c1 [Compound 78]
< 1000 | COC(=O)c1cc(NC(=S)Nc2cccc(C(=N)N)c2)cc(C(F)(F)F)c1 [Compound 79]
< 1000 | CCN(CC)C(=O)c1cccc(NC(=S)Nc2cccc(C(=N)N)c2)c1 [Compound 80]
< 1000 | N=C(Nc1cccnc1)c1cccc(NC(=O)Nc2ccc(S(=O)(=O)c3ccc([N+](=O)[O-])cc3)cc2)c1 [Compound 82]
